Measurements from ChEMBL document CHEMBL5465560, “Selectivity Literature for EUbOPEN Chemogenomic Library” (2024).

Tests used:
[1] = biological target: T1, Serine/threonine-protein kinase D2 (Homo sapiens) (UniProt Q9BZL6); assay: Selectivity interaction (Kinase panel (KiNativ target engagement assay in Jurkat cells)) EUB0001635a PRKD2; assay type: cell-based; conditions: at 1 µM
T1 sequence (whole entry): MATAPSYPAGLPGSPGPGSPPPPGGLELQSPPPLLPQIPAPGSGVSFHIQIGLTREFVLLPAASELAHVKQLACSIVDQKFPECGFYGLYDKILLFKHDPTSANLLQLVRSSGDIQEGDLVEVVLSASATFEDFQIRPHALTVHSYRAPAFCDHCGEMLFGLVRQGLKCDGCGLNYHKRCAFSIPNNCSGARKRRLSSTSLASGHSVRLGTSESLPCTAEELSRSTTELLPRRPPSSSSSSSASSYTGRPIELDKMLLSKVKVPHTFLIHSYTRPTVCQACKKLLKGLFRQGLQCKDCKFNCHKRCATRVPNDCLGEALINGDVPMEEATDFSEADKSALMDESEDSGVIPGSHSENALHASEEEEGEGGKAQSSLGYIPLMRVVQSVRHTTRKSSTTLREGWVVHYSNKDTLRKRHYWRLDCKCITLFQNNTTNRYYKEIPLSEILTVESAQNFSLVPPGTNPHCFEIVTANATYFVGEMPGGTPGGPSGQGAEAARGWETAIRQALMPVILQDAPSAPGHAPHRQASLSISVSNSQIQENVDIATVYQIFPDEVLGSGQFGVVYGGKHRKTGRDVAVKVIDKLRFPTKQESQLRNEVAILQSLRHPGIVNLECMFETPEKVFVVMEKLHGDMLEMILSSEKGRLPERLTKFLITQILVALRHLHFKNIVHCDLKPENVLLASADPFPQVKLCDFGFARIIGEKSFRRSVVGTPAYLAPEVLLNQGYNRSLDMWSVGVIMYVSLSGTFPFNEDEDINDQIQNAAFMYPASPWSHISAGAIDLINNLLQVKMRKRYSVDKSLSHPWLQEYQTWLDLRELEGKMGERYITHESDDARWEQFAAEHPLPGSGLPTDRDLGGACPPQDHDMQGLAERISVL

[2] = biological target: T2, Protein kinase C epsilon type (Homo sapiens) (UniProt Q02156); assay: Selectivity interaction (KinomeScan (DiscoverX)) EUB0000595a PRKCE; conditions: at 10 µM
T2 sequence (whole entry): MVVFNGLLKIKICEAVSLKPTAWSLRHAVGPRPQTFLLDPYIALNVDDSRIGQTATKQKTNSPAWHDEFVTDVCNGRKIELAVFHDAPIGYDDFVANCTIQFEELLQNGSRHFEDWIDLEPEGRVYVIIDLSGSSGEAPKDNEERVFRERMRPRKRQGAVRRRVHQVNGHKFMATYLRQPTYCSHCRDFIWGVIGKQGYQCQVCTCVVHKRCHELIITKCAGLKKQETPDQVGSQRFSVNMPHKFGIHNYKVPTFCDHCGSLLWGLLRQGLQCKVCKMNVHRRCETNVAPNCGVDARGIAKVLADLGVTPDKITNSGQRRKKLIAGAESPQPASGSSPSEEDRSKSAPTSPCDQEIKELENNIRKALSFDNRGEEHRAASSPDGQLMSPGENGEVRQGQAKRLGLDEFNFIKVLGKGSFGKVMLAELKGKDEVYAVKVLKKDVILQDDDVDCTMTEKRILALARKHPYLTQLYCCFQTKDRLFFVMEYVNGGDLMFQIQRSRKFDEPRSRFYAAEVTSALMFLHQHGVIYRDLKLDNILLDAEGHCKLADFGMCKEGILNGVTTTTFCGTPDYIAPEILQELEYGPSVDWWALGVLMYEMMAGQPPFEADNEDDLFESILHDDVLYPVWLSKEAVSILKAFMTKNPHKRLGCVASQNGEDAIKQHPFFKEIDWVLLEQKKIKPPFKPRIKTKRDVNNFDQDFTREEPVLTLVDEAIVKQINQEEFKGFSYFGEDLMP

[3] = biological target: Tyrosine-protein kinase SYK (Homo sapiens, UniProt P43405); assay: Selectivity interaction (KinomeScan (DiscoverX)) EUB0000595a SYK; conditions: at 10 µM
[4] = biological target: Serine/threonine-protein kinase MRCK gamma (Homo sapiens) (UniProt Q6DT37); assay: Selectivity interaction (KinomeScan (DiscoverX)) EUB0000045b CDC42BPG
[5] = biological target: G protein-coupled receptor kinase 6 (Homo sapiens) (UniProt P43250); assay: Selectivity interaction (Kinase panel (Z-LYTE Assay)) EUB0001632a GRK6; conditions: at 10 µM
[6] = biological target: Mitogen-activated protein kinase 7 (Homo sapiens) (UniProt Q13164); assay: Selectivity interaction (Rxn Biology Kinase assay) EUB0001632a MAPK7; conditions: at 10 µM
[7] = biological target: RAC-gamma serine/threonine-protein kinase (Homo sapiens, UniProt Q9Y243); assay: Selectivity interaction (Millipore kinase profiler) EUB0000124b AKT3; conditions: at 10 µM
[8] = biological target: SRSF protein kinase 2 (Homo sapiens) (UniProt P78362); assay: Selectivity interaction (KinomeScan (DiscoverX)) EUB0000607a SRPK2; conditions: at 10 µM
[9] = biological target: Mitogen-activated protein kinase 14 (Homo sapiens, UniProt Q16539); assay: Selectivity interaction (ActivX KiNativ screen (kinase selectivity in THP-1 cell lysates)) EUB0000639a MAPK14; assay type: subcellular; conditions: lysate, at 0.04 µM
[10] = biological target: Ribosomal protein S6 kinase alpha-3 (Homo sapiens, UniProt P51812); assay: Selectivity interaction (ActivX KiNativ screen (kinase selectivity in THP-1 cell lysates)) EUB0000639a RPS6KA3; assay type: subcellular; conditions: lysate, at 5 µM
Sequence of Ribosomal protein S6 kinase alpha-3 (P51812 whole entry): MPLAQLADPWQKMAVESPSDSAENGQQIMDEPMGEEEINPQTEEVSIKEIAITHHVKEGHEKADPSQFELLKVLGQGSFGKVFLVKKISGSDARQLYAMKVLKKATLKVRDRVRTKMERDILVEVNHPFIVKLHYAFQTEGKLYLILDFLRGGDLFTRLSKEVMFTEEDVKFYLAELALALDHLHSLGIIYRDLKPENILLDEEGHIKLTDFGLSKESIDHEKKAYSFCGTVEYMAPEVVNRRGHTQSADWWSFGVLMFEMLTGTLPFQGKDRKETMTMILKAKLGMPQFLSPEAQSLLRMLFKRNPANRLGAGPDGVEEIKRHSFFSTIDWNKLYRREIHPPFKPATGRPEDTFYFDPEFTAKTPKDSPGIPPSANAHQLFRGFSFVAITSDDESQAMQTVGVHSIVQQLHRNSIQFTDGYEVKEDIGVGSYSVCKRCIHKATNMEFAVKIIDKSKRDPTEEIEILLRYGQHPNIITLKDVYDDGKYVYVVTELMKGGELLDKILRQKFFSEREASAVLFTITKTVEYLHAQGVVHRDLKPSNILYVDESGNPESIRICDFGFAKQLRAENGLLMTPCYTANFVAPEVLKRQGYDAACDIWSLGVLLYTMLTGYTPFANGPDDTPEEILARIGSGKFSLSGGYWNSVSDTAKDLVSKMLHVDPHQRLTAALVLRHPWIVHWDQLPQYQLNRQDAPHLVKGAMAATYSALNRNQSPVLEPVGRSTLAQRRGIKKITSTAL

Sequence of Serine/threonine-protein kinase MRCK gamma (Homo sapiens) (Q6DT37 whole entry): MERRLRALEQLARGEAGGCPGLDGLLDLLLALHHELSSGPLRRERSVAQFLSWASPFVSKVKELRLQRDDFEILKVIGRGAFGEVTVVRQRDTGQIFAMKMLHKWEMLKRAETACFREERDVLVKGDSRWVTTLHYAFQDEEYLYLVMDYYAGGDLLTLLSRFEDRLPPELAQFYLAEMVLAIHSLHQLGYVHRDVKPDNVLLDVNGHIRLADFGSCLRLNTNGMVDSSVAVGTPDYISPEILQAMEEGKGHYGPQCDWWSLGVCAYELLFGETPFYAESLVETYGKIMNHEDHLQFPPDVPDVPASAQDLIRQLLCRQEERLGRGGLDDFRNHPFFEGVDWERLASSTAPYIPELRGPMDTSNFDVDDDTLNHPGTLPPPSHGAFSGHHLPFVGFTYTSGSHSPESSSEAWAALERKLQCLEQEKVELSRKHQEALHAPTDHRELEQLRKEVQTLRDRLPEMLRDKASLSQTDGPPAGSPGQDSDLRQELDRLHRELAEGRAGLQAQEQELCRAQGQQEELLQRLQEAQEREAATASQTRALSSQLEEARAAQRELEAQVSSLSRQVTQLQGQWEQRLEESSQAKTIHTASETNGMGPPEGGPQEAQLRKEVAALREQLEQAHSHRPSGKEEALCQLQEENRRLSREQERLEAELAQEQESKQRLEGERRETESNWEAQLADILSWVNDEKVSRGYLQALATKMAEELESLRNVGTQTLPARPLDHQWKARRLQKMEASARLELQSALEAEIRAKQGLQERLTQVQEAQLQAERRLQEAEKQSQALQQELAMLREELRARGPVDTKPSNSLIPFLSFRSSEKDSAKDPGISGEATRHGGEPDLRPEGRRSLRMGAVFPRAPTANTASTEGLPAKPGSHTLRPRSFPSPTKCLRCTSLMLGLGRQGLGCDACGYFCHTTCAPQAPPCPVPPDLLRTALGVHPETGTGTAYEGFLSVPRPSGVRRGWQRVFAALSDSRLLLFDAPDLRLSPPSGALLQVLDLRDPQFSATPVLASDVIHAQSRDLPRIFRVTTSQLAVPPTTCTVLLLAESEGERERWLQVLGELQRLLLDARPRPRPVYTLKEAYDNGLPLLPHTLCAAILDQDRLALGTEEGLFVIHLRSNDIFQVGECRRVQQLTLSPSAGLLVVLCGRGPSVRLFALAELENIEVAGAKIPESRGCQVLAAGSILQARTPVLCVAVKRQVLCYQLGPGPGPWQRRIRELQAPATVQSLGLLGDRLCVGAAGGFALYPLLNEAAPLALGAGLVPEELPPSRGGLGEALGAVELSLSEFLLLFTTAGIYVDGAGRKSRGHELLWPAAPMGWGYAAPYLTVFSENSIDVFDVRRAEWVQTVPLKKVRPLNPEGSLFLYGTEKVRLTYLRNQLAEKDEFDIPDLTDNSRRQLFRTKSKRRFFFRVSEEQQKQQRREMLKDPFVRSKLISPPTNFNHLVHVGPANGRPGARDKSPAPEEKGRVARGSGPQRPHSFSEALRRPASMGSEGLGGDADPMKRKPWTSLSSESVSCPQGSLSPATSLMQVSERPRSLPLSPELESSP
Sequence of Mitogen-activated protein kinase 14 (Q16539 whole entry): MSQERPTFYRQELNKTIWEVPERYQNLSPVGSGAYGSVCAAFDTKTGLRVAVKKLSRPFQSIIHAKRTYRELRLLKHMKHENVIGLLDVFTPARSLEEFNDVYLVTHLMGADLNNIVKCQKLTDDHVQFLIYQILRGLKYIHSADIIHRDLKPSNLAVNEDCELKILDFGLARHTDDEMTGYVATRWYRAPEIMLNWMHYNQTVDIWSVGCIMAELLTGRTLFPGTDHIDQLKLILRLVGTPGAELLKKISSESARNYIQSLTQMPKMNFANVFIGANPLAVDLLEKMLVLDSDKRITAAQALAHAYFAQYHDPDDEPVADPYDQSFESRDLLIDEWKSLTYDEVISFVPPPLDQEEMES
Sequence of SRSF protein kinase 2 (Homo sapiens) (P78362 whole entry, looked up): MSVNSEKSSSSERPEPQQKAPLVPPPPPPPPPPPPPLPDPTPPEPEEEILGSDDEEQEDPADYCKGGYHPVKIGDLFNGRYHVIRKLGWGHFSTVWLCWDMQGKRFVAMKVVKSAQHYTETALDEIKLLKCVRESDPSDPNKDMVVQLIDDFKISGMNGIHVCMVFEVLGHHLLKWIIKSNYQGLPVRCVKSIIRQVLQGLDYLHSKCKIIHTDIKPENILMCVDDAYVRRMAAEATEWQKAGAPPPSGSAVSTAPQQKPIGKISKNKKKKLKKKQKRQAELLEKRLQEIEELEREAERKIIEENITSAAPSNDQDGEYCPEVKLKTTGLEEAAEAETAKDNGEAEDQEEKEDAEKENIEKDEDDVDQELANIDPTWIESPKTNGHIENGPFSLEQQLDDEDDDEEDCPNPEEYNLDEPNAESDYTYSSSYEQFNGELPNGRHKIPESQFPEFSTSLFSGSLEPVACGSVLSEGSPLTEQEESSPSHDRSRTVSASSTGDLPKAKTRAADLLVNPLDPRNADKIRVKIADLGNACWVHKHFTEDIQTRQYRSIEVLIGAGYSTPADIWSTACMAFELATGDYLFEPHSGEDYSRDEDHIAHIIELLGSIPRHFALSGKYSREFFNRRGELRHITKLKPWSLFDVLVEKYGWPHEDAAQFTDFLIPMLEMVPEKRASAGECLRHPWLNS
Sequence of G protein-coupled receptor kinase 6 (Homo sapiens) (P43250 whole entry, looked up): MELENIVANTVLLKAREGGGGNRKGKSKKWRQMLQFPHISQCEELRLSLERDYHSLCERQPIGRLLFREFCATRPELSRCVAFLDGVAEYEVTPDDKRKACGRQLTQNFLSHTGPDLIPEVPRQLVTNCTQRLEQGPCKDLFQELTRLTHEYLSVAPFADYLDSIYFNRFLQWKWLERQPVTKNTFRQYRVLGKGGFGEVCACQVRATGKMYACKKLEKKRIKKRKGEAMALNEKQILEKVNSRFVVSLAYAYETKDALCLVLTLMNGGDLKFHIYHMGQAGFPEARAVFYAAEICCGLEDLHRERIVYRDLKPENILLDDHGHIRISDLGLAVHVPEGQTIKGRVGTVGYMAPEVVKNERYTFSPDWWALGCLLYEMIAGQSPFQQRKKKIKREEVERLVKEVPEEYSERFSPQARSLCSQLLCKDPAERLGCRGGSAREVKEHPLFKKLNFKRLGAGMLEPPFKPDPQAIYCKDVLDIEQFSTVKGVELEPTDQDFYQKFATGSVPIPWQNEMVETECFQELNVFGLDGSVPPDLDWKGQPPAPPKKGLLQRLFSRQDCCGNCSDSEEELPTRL
Sequence of Mitogen-activated protein kinase 7 (Homo sapiens) (Q13164 2-816 limits assumed): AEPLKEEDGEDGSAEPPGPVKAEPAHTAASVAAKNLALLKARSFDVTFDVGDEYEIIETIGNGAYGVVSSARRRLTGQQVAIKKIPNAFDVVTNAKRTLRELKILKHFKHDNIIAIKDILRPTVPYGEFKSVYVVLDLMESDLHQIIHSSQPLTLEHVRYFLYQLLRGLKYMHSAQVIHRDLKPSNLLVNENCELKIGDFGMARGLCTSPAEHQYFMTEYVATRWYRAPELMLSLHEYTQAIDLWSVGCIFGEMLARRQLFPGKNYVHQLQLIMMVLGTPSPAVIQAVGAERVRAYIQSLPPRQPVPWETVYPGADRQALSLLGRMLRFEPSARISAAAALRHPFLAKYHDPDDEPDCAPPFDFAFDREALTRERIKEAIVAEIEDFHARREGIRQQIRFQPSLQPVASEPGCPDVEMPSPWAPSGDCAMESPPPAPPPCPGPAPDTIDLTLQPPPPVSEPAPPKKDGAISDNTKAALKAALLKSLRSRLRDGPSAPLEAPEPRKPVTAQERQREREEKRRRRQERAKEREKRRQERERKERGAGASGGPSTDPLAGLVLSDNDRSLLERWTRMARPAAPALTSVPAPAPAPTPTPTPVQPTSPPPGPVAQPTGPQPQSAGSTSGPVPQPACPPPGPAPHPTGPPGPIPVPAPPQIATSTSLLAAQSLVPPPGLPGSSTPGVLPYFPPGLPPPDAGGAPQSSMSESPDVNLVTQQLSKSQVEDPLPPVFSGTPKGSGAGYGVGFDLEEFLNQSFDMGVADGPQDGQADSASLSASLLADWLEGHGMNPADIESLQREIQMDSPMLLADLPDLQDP

C=CC(=O)Nc1ccc(C(=O)Nc2[nH]nc3c2CN(C(=O)N[C@H](CN(C)C)c2ccccc2)C3(C)C)cc1
% of engagement [1]: -4.9%

COCC(=O)NC/C=C/c1ccc2ncnc(Nc3ccc(Oc4ccc(C)nc4)c(C)c3)c2c1 [CP-724714]
% of control [2]: 100%
% of control [3]: 100%

C=CC(=O)Nc1cc(-n2c(=O)ccc3cnc4ccc(-c5ccc(NS(C)(=O)=O)cc5)cc4c32)ccc1C
% of control ([4]; at 1 µM): 100%
% of control ([4]; at 10 µM): 90%

Cn1cc(-n2cnc3c(NCc4nc5cc(Cl)c(Cl)cc5[nH]4)nc(N4CCOCC4)nc32)cn1
% of control [5]: -1.29%
% of inhibition [6]: -29.8%

CC(=O)Nc1cccc(-n2c(=O)n(C3CC3)c(=O)c3c(Nc4ccc(I)cc4F)n(C)c(=O)c(C)c32)c1
% of control [7]: 109%

CNC(=O)Nc1ccc(-c2nc(N3CC4CCC(C3)O4)c3cnn(C4CCC5(CC4)OCCO5)c3n2)cc1
% of control [8]: 90%

CC[C@@H]1[C@H](F)C(=O)N[C@@H]1COc1nccc2cc(C(N)=O)c(OC)cc12 [ZIMLOVISERTIB]
% of inhibition [9]: 5.4%
% of inhibition [10]: 8%
